We go through three compounds from patent US10202356B2, “JAK2 and ALK2 inhibitors and methods for their use” (Tolero Pharmaceuticals, Inc., priority 2013, dated 2019).

SMILES strings stand for the structures. Like-named read-outs stand apart in the source and are kept apart here.

Broadly, the IC50 is the concentration that inhibits the measured activity by half. A word on the Cmax: it is the peak of the concentration-time curve. Broadly, the Tmax is the time at which the peak concentration occurs. As usually defined, the bioavailability is the share of a dose that reaches the circulation, judged against a reference dose that is usually intravenous.

In one data set the test system is hepcidin expression. The data set is described as follows: Liver hepcidin expression in mice after single oral dose, real-time RT-PCR. The format is in vivo. Conditions: single oral dose 250 mg/kg, liver mRNA after six hours. The procedure: Hepcidin expression in the mice treated with compounds 4 and 12 was compared to hepcidin expression in mice treated with compound A. In this experiment, mice were treated orally with a single dose of test compound. After six hours, livers were removed from euthanized animals and RNA extracted. Hepcidin mRNA levels were determined by real-time RT-PCR as described above.
(In general: In qPCR the cycle at which signal appears reflects the starting amount.)

A further data set deals with T1, JAK2 kinase (Homo sapiens, UniProt O60674).
T1 construct: purchased Life Technologies (Drug Discovery and Development Services, Madison, Wis.)
The data set is described as follows: JAK2 kinase assay, Z'-LYTE technology. The format is biochemical. The procedure:
(§1) Biochemical assays to measure the inhibitory effects of the compounds were performed by the Drug Discovery and Development Services at Life Technologies (Madison, Wis.). JAK2 kinase assays were performed using Z′-LYTE® technology, while ALK2 inhibition was tested using a LanthaScreen® binding assay.

In the next data set the target is T2, ALK2 (Homo sapiens, UniProt Q04771).
T2 construct: purchased Life Technologies (Drug Discovery and Development Services, Madison, Wis.)
T2 sequence (Q04771 21-509): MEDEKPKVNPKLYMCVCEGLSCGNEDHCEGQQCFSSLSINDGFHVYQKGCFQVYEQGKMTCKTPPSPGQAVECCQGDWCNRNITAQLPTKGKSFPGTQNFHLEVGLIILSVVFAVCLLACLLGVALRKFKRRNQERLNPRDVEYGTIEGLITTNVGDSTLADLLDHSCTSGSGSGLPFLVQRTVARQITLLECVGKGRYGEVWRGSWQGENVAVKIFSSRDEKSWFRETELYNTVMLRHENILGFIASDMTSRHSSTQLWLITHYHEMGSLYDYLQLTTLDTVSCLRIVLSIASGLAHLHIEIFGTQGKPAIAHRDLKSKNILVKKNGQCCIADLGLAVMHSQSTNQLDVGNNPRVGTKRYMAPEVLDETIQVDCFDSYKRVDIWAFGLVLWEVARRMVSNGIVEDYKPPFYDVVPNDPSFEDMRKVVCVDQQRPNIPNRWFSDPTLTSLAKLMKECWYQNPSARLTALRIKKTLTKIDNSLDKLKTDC
The data set is described as follows: ALK2 inhibition, LanthaScreen binding assay. The procedure:
as §1

Data set [1] in a line: Pharmacokinetic profile, IV and PO administration. The format is in vivo, female rats. Also noted: AUC 0-inf: concentration or dose not given beside the values. Conditions: for AUC 0-inf / Cmax / Tmax / half-life: female; for AUC 0-inf: read-out: AUC 0-inf; for Cmax: read-out: Cmax; for Tmax: read-out: Tmax; for half-life: read-out: t½ (converted).
In data set [2] the test system is hepcidin expression induced by BMP2 in HEPG2 cells. The data set is described as follows: BMP2-induced hepcidin expression in HEPG2 cells. The format is cell-based. Conditions: 0.3 μM.
Data set [3] deals with hepcidin expression of HEPG2 cells. The data set is described as follows: Baseline hepcidin expression in HEPG2 cells, real-time RT-PCR. The format is cell-based. Conditions: 3 μM, 6 hours, HEPG2, normalized to β-actin. The procedure:
Hepcidin expression of HEPG2 cells treated with exemplary compounds of the invention was tested. […] To observe the ability of the compounds to effect baseline hepcidin expression, HEPG2 (hepatocellular carcinoma) cells were treated with compound for 6 hours and then assayed for hepcidin expression by real-time RT-PCR (normalized to levels of β-actin). Hepcidin expression was lowered in a dose dependent manner. Hepcidin expression was inhibited by 90% at a 3 μM concentration of Compound 12. […] In contrast, Compound 7 treated cells produced a 50% decrease in the induction when treated at 0.3 μM.

The mark [4] stands for this setting: rat, plasma, PO, free base or salt form as labelled.

T1 sequence (O60674 whole entry): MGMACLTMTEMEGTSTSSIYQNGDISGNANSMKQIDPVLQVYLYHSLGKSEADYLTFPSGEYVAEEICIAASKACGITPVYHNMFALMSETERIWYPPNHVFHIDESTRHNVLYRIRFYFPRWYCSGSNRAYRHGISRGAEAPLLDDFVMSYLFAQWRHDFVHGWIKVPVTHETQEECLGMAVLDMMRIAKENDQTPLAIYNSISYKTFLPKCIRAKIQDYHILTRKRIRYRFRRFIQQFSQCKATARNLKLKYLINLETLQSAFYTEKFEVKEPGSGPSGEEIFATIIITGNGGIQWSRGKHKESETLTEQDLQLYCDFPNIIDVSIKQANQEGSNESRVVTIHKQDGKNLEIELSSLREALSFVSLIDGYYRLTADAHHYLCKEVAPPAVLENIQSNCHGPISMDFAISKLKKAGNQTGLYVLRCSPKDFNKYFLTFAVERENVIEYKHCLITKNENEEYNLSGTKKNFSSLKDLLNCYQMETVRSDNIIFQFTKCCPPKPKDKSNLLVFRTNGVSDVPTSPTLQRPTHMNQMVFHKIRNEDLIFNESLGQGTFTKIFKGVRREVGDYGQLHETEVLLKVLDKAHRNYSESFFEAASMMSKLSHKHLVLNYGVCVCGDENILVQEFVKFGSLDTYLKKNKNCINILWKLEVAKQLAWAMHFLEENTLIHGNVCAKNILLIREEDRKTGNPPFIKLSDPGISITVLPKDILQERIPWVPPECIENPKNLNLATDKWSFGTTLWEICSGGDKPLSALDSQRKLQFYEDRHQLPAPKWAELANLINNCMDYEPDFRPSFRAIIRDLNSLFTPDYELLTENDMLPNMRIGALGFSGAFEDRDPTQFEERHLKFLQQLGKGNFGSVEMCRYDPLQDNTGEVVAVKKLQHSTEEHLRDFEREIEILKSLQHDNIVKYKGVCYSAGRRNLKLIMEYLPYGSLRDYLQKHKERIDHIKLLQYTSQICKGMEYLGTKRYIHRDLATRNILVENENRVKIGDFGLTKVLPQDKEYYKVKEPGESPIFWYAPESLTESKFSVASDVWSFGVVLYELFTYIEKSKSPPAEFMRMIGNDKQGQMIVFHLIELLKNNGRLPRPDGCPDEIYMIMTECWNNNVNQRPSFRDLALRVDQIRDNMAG

As for `COc1cc(Nc2nccc(Nc3cccc(C4(C#N)CC4)c3)n2)ccc1N1CCN(C)CC1` [Compound 4, 1-(3-(2-(3-methoxy-4-(4-methylpiperazin-1-yl)phenylamino)pyrimidin-4-ylamino)phenyl)cyclopropanecarbonitrile], in the data set on hepcidin expression, the “hepcidin expression in mice compared to compound A” value is reported as “inhibit hepcidin expression to a greater extent than compound A”. The concentration for half-maximal inhibition (IC50) against JAK2 kinase is less than 0.01 µM. For the same compound, the 50% inhibitory concentration (IC50) on ALK2 lay within 0.01 to 1 µM. This compound also registered a F in data set [1] (IV) of 100.0 % IV. In addition, in data set [1] (PO, free base or salt form as labelled), the F is 15.4 % IV. Also, in data set [1] (female rats), the “plasma concentration levels after 24 hours” value is given as “remain high”. Also, in data set [1] (rat, plasma, iv), the AUC 0-inf came to 1380 ng·h/mL, the Cmax stood at 996 ng/mL, the time of peak concentration (Tmax) stood at 0 h and the half-life is 9.2 h. Further, in data set [1] (setting [4]), the AUC 0-inf is 852 ng·h/mL, the Cmax turned out to be 118 ng/mL, the time to peak (Tmax) came out at 2 h and the half-life is 6.5 h.
On to `N#CC1(c2cccc(Nc3ccnc(Nc4ccc(N5CCN(CCO)CC5)c(Cl)c4)n3)c2)CC1` [Compound 7, 1-(3-((2-((3-chloro-4-(4-(2-hydroxyethyl)piperazin-1-yl)phenyl)amino)pyrimidin-4-yl)amino)phenyl) cyclopropanecarbonitrile], for which the “decrease in the BMP2 induction of hepcidin” value in data set [2] turned out to be 50%. The 50% inhibitory concentration (IC50) against JAK2 kinase was less than 0.01 µM; on ALK2, 0.01 to 1 µM.
Consider `COc1cc(Nc2nccc(Nc3cccnc3-c3ccccn3)n2)cc(OC)c1OC` [Compound 12, N^4-(2,2′-bipyridin-3-yl)-N^2-(3,4,5-trimethoxyphenyl)pyrimidine-2,4-diamine], for which the Hepcidin expression inhibited in data set [3] is 90%. Also, the concentration for half-maximal inhibition (IC50) on JAK2 kinase is greater than 1 µM; on ALK2, less than 0.01 µM. In data set [1] (female rats), the “plasma concentration levels after 24 hours” value is “remained high”. The compound further came in with a bioavailability in data set [1] (rat, plasma, female rats, oral dose) of 95%.
